Read-outs that look alike come from different tables or passages of the source.
Columns and labels:
[1] = system: Reconstructed Human Epidermis (RHE) exposed to Th2 cytokines IL-4, IL-13, IL-25; experiment: Reconstructed Human Epidermis Th2 model for AD efficacy (Method S); format: cell-based; details: 48 h
Method: Reconstructed Human Epidermis (RHE) tissues are produced and grown by StratiCELL. To generate the morphological and functional aspects of AD, RHE samples are exposed to Th2 cytokines IL-4, IL-13, IL-25. Th-2 cytokines are applied for 48 h in the culture medium of epidermis. Test formulations are applied simultaneously with the cytokines on the stratum corneum of the epidermis during the same 48 h. The tissue morphology is assessed by histology and hemalum/eosin (H/E) staining—quantification of a fluorescent dye (biotin) diffusion through the epidermis in order to evaluate the barrier function.

[2] = system: Human skin from cosmetic reduction surgery; experiment: Skin penetration (IVPT), vertical diffusion cell (Method A); format: in vitro ADME
Method: The skin is dosed with approx. 6 mg of formulation to achieve a dose of ˜ 10 mg/cm2. Receptor solution is collected at pre-determined intervals over the course of 24 hours and analyzed using a liquid chromatography with tandem mass spectrometry (LC-MS/MS) analytical method.
Following 24 hours, the residual formulation is removed from the surface of the skin. The skin surface is tape-stripped up to five times to remove residual formulation and the top of the skin surface layers (Stratum Corneum). The epidermis is then heat-separated from the dermis. The active agent is extracted from the skin layers and the amount of active agent delivered to the epidermis and dermis is then determined by LC-MS/MS.

[3] = Human equivalent dose, safety factor and predicted exposure from the minipig NOAEL
[4] = human, in vivo
Method: Values below the limit of concentration are omitted from determination of geometric mean and geometric % CV.
Samples designated for analysis of fingolimod and fingolimod phosphate are collected and processed for shipment to bioanalytical laboratories. Frozen samples are thawed at room temperature and homogenized by vortexing. 10 μL of ISTD working solution (WS ISTD2 50 ng/mL in methanol/water, 50/50, V/V) is addeded to Eppendorf tubes each containing 200 sample (exception blank samples for which 10 μL of methanol/water, 50/50, V/V is added). Samples are vortexed for 5 sec and 800 μL of acetonitrile is added to each sample and vortexed for additional 10 sec. Next samples are centrifuged for 10 min at 14000 rpm at 5° C. and 900 μL is transferred to hemolyse tube. The samples are evaporated at approximately 40° C. […]
Whole blood is analyzed for concentration of fingolimod and fingolimod phosphate using a validated analytical procedure for the simultaneous quantitation of both analytes. […] After, the analyte is separated on a Kinetex Biphenyl column (50×3.0 mm, 2.6 μm) and analyzed using electrospray ionization (ESI) tandem mass spectrometry (MS/MS) in the multiple reaction monitoring mode (MRM). […]

[5] = cited from earlier work
[6] = Toxicokinetics / pK in minipigs (Method T); details: day 1; tofacitinib 0.6% fingolimod 0.005% gel group
Method: (§1) The animals are not fasted prior to blood collection, with the exception of the intervals that coincide with fasting for clinical pathology collections.
(§2) If necessary, the samples are frozen on dry ice prior to being placed in the freezer. […] Samples are stored at the bioanalytical laboratories in a freezer set to maintain −80±10° C. until analysis.
(§3) Samples designated for analysis of fingolimod and fingolimod phosphate are mixed gently, lysed with an equal volume of deionized water, vortexed for approximately 1 minute, divided into two approximately equal aliquots, transferred to uniquely labeled polypropylene tubes and frozen in a freezer set to maintain −70° C. If necessary, the samples are frozen on dry ice prior to being placed in the freezer. The samples for fingolimod analysis are shipped with a temperature monitoring device to bioanalytical laboratories. Samples are stored at the bioanalytical laboratories in a freezer set to maintain −75±15° C. until analysis.
(§4) Whole blood is analyzed for concentration of fingolimod and fingolimod phosphate using a validated analytical procedure for the simultaneous quantitation of both analytes.
(§5) TK samples collected on Days 49 and 56 from recovery animals in Groups 1, 2, 3, 5, and 6 are also analyzed. […]

[7] = Chemical stability of formulations (Method H); format: physicochemical; details: gel with Tofacitinib Citrate 1.0% and Fingolimod HCl 0.01% (Table 38)
Method: Where another active agent such as fingolimod is present in the formulations the samples are analyzed for that active agent and its degradation products by HPLC. […] The gradient elution is employed.

[8] = Visual solubility evaluation of Fingolimod free base; format: physicochemical; details: for solubility: organic solvent or mixture, thermodynamic from solid, visual, RT
Method: A visual solubility evaluation of Fingolimod free base was performed.

[9] = system: S1P receptors (S1P1 and S1P3-5); details: cited from earlier work
[10] = minipig, in vivo
Method: as §1, §2, §3, §4, §5

[11] = estimated from Table 43a, epidermis assumed 80 μm, skin 500 μm, density 1.0 g/cm^3
[12] = gel with Fingolimod HCl […] (Table 42), Mean (n = 5)
[13] = gel with Tofacitinib Citrate 1.0% and Fingolimod HCl 0.01% (Table 43a), Mean (n = 5)

For `CCCCCCCCc1ccc(CCC(N)(CO)CO)cc1` [fingolimod, 2-amino-2-[2-(4-octylphenyl)ethyl]propane-1,3-diol], the “barrier function (biotin immunofluorescence)” value ([1]; 0.001% w/w and 0.01% w/w) was “reduced the Th2-induced barrier alteration”, the “tissue morphology (histology)” value ([1]; 0.001% w/w and 0.01% w/w) was “reduced the Th2-induced barrier alteration” and the “barrier function (biotin immunofluorescence)” value ([1]; 0.1% and 1%) was “Increased barrier alteration”. For the same molecule, the “tissue morphology (histology)” value ([1]; 0.1% w/w and 1% w/w) was “increased fragilization was observed with junction/adhesion loss and disorganization of cell layers”, the “Dermis concentration, μg/g Based on the Mean (n = 5)” value [2, 11] was 0.6 µg/g and the “Epidermis concentration, μg/g Based on the Mean (n = 5)” value [2, 11] was 3.4 µg/g. The “estimated concentration of active in dermis” value ([2]; formulation with 1.0% tofacitinib citrate and […] fingolimod hydrochloride) was 0.6 µg/mL, the “estimated concentration of active in epidermis” value ([2]; formulation with 1.0% tofacitinib citrate and […] fingolimod hydrochloride, epidermis assumed 80 μm) was 3.4 µg/g and the “Amount of Fingolimod recovered, % applied dose, Dermis” value [2, 12] was 2.59%. The “Amount of Fingolimod recovered, % applied dose, Epidermis” value [2, 12] was 1.98%, the “Amount of Fingolimod recovered, % applied dose, Receptor fluid” value [2, 12] was “ND (not detected (below LOQ of 0.25 ng/mL))” and the “Amount of Fingolimod recovered, ng, Dermis” value [2, 12] was 49.16 ^ ng. The “Amount of Fingolimod recovered, ng, Receptor fluid” value [2, 12] was “ND (not detected (below LOQ of 0.25 ng/mL))”, the “Amount of Fingolimod recovered, % applied dose, Dermis” value [2, 13] was 1.44% and the “Amount of Fingolimod recovered, % applied dose, Epidermis” value [2, 13] was 1.59%. For the same molecule, the “Amount of Fingolimod recovered, % applied dose, Receptor fluid” value [2, 13] was “ND (not detected (below LOQ of 0.25 ng/ml))”, the “Amount of Fingolimod recovered, ng, Dermis” value [2, 13] was 14.82 ng and the “Amount of Fingolimod recovered, ng, Epidermis” value [2, 13] was 16.21 ng. For the same molecule, the “Amount of Fingolimod recovered, ng, Receptor fluid” value [2, 13] was “ND (not detected (below LOQ of 0.25 ng/ml))”, the “human equivalent dose (HED)” value ([3]; from minipig NOAEL, minipig 10 kg, human 60 kg) was 2.21 mg/kg/day and the “safety factor over the NOAEL of the 6-week minipig dermal toxicity study” value ([3]; maximum daily application of 2 g dual active gel) was 669 fold. The “whole blood concentrations (all below the assay LLOQ)” value [4] was < 0.08 ng/mL, the solubility ([5]; organic solvents, such as ethanol, DMSO and dimethyl formamide) was “soluble” and the solubility ([5]; water) was “sparingly soluble”. For the same molecule, the quantifiability in blood [6] was “not quantifiable”, the “Assay of Fingolimod, % LC” value ([7]; 2 months at 40° C.) was 97.2 % LC and the “Assay of Fingolimod, % LC” value ([7]; 2 months at 50° C.) was 95.0 % LC. The “Assay of Fingolimod, % LC” value ([7]; 3 weeks at 5° C.) was 100.3 % LC, the “Assay of Fingolimod, % LC” value ([7]; 3 weeks at 40° C.) was 99.9 % LC and the “Assay of Fingolimod, % LC” value ([7]; 3 weeks at 50° C.) was 94.1 % LC. The “Assay of Fingolimod, % LC” value ([7]; Initial) was 99.9 % LC, the “visual solubility at RT” value ([8]; alcohols) was “very good solubility” and the “visual solubility at RT” value ([8]; most of organic solvents tested) was “good solubility”. The solubility ([8]; Diisopropyloxide) was < 1.1 mg/mL, the solubility ([8]; Ethanol) was > 20 mg/mL and the solubility ([8]; Methanol) was > 20 mg/mL. The solubility ([8]; Toluene) was < 1.7 mg/mL and the “visual solubility at RT” value ([8]; water, toluene, diisopropyloxide and methyl ethyl ketone) was “very low soluble”.
For fingolimod-phosphate, the “whole blood concentrations (all below the assay LLOQ)” value [4] is given as < 0.08 ng/mL, the “affinity for four of the five S1P receptors” value [9] is given as 0.3 to 3.1 nM and the quantifiability in blood [10] is given as “only quantifiable in the 0.2% fingolimod gel group”.

Reference: patent US20230320984A1, “TOFACITINIB-CONTAINING ANHYDROUS ELASTOMER-BASED GEL FORMULATIONS” (Vyne Therapeutics Inc., priority 2022, published 2023)
